# Like-named read-outs stand apart in the source and are kept apart here.
# How the values were obtained:
# [1] = biological target: Focal Adhesion Kinase (FAK) (Homo sapiens, UniProt Q05397); test: FAK assay system (Focal Adhesion Kinase inhibition); assay type: biochemical; conditions: read-out: FAK IC50
# [2] = biological target: IGF-IR (Homo sapiens, UniProt P08069); test: Cellular Capture ELISA of IGF-I induced autophosphorylation of the IGF-IR; assay type: cell-based; conditions: read-out: IGF-1R IC50
# Chain of IGF-IR (P08069 31-1367): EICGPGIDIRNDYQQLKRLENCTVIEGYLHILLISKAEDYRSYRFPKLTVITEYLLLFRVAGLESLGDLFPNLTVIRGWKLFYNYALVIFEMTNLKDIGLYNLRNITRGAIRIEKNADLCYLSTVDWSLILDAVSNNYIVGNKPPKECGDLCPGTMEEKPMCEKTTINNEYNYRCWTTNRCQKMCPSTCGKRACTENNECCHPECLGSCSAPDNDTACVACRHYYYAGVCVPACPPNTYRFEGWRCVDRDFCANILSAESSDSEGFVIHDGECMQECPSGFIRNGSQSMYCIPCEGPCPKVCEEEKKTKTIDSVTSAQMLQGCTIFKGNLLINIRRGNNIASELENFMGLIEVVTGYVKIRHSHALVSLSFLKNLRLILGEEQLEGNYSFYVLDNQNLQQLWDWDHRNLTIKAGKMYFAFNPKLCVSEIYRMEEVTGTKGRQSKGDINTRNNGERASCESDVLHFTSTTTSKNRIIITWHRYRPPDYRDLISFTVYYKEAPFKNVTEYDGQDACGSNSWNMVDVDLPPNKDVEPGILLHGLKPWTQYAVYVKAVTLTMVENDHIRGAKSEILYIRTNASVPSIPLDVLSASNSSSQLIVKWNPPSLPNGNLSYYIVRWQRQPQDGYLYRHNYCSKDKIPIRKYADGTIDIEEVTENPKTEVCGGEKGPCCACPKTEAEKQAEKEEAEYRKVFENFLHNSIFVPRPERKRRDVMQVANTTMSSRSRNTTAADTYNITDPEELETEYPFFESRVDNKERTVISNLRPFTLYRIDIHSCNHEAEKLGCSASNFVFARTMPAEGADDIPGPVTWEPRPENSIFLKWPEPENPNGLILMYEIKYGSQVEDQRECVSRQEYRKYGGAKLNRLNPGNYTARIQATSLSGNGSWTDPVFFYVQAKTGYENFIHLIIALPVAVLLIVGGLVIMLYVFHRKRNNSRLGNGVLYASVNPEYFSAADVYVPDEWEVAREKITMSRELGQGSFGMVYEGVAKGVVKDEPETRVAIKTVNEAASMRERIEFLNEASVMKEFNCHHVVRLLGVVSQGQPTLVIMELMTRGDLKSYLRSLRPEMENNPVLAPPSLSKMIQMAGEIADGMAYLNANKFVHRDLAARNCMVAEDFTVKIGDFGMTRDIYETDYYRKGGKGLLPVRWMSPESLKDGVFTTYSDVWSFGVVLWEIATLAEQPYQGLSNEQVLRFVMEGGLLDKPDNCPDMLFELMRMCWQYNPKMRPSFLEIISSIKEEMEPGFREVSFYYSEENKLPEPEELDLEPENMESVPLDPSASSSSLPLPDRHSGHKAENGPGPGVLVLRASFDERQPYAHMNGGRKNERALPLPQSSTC
# Description: In this assay the activity of the compounds of the invention against Insulin-like growth factor I (IGF-I) induced autophosphorylation of the IGF-IR is determined.
# [3] = system: Mouse mammary carcinoma 4T1 cells; test: Anchorage-independent tumor cell growth assay; assay type: cell-based
# Description: Cells are cultured for 2 h and inhibitors are added at various concentrations in a final concentration of 0.1% DMSO. After 48 h, cell growth is assayed with the cell counting kit-8 (Wako Pure Chemical), which uses a water soluble tetrazolium salt WST8. Twenty μL of the reagent is added into each well and cells are further cultured for 2 h. The optical density is measured at 450 nm.
# [4] = biological target: FAK (Mus musculus, UniProt P34152); test: Phos IC50 (phosphorylation); assay type: cell-based
# Chain of FAK (P34152 2-1052): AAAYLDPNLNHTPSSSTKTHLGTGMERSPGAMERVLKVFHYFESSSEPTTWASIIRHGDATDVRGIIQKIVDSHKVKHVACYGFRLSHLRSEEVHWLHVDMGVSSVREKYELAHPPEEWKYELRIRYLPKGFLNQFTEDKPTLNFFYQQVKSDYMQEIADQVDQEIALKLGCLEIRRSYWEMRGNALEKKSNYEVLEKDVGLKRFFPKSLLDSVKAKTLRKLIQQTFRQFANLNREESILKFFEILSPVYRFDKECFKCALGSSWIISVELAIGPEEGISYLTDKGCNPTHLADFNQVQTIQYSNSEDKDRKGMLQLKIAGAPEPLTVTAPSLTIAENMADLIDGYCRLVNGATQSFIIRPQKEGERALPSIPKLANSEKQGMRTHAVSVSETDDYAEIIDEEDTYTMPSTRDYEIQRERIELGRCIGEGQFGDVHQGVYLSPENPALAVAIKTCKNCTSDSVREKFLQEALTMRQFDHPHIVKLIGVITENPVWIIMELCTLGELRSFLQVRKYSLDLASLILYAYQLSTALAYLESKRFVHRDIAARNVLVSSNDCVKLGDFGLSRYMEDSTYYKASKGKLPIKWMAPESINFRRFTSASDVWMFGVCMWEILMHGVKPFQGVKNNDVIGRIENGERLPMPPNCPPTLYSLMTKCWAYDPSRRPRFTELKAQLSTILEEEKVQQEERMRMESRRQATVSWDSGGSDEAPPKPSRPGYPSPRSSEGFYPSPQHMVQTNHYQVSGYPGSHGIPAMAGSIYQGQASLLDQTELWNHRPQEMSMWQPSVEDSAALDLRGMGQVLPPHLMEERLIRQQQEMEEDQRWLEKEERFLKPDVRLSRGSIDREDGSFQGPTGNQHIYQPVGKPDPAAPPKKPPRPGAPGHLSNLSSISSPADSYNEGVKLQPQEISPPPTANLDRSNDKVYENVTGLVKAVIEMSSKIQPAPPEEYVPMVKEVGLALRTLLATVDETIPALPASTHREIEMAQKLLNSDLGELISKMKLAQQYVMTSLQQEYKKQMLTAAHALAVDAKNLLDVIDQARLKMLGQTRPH
# [5] = system: T Cell; test: T Cell Migration; assay type: cell-based; conditions: T-cell
# Chain of Focal Adhesion Kinase (FAK) (Q05397 384-706): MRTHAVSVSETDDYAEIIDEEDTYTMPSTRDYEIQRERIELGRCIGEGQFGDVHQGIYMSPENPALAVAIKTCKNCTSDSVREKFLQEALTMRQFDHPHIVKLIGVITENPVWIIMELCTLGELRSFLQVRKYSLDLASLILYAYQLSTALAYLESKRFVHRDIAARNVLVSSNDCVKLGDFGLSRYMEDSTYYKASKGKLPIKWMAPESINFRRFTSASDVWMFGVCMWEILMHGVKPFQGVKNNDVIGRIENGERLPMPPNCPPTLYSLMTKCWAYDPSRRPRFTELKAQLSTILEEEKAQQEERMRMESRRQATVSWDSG
Structure (SMILES),IC50 [1] [nM],IC50 [2] [nM],"IC50 ([3]; Mus musculus, 4T1) [nM]",IC50 [4] [nM],IC50 [3] [nM],IC50 [5] [nM]
COc1cc(N2CCN(CCO)CC2)ccc1Nc1ncc(Cl)c(Nc2ccccc2S(=O)(=O)C(C)C)n1 [Example 28-2],1.9,3710,440,80,,
CNS(=O)(=O)c1ccccc1Nc1nc(Nc2ccc(N3CCNCC3)cc2OC)ncc1Cl [Example 20-7],3,380,50,100,,
COc1cc(OC2CCN(C)C2)ccc1Nc1ncc(Cl)c(Nc2ccccc2S(=O)(=O)NC(C)C)n1 (stereo not shown) [Example 19-20],1.6,230,70,30,,
CNS(=O)(=O)c1ccccc1Nc1nc(Nc2ccc(C)cc2OC)ncc1Br [Example 3-5],21,> 10000,2000,170,,
CCC(CC)NS(=O)(=O)c1ccccc1Nc1nc(Nc2ccc(N3CCC(NC)C3)cc2OC)ncc1Cl (stereo not shown) [Example 23-3],1.7,820,1120,1000,,
CNS(=O)(=O)c1ccccc1Nc1nc(Nc2ccc(-n3ccnc3)cc2OC)ncc1Br [Example 3-48],7,210,300,70,,
CCNC(=O)c1ccccc1Nc1nc(Nc2ccc(N3CCOCC3)cc2OC)ncc1Cl [Example 9-5],22,600,,360,1600,
CNC(=O)c1ccccc1Nc1nc(Nc2cc(N3CCN(C(C)=O)CC3)ccc2OC)ncc1Cl [Example 7-30],2.1,,300,,,1000
CNC1CCN(c2ccc(Nc3ncc(Cl)c(Nc4ccccc4S(=O)(=O)NC(C)C)n3)c(OC)c2F)C1 (stereo not shown) [Example 19-12],9,630,700,> 10000,,
CNC(=O)c1ccccc1Nc1nc(Nc2ccc(OC3CCN(C)CC3)cc2OC)ncc1Cl [Example 7-5],6.2,250,200,300,,
CCOc1cc(N2CCOCC2)ccc1Nc1ncc(Br)c(Nc2ccccc2S(=O)(=O)NC)n1 [Example 3-58],21,140,300,80,,
CNS(=O)(=O)c1ccccc1Nc1nc(Nc2ccc(F)cc2OC)ncc1Br [Example 3-80],12,5000,450,220,,
COc1cc(NCC(C)(C)CN(C)C)ccc1Nc1ncc(Cl)c(Nc2ccccc2S(=O)(=O)NC(C)C)n1 [Example 19-10],1.3,1020,560,60,,
CCN1CCC(Oc2ccc(Nc3ncc(Cl)c(Nc4ccccc4S(=O)(=O)NC)n3)c(OC)c2)C1 (stereo not shown) [Example 20-30],7.6,670,80,300,,
COc1cc(N2CCN(C3CCN(C)CC3)CC2)ccc1Nc1ncc(Cl)c(Nc2ccccc2S(=O)(=O)C(C)C)n1 [Example 28-24],2.9,2570,90,200,,
CCC(CC)NS(=O)(=O)c1ccccc1Nc1nc(Nc2ccc(N3CCN(C)CC3)cc2OC)ncc1Cl [Example 23-2],1.5,800,400,200,,
CC(C)NS(=O)(=O)c1ccccc1Nc1nc(Nc2ccc(N3CCOCC3)cc2F)ncc1Cl [Example 19-25],7.2,240,490,1000,,
CNS(=O)(=O)c1ccccc1Nc1nc(Nc2ccc(OC3CCN(C(C)C)C3)cc2OC)ncc1Cl (stereo not shown) [Example 20-28],9.2,420,80,170,,
COc1cc(N2CCOCC2)ccc1Nc1ncc(Cl)c(Nc2ccccc2S(=O)(=O)C2CCCC2)n1 [Example 33-2],5.2,100,250,60,,
CCNC1CCN(c2ccc(Nc3ncc(Cl)c(Nc4ccccc4S(=O)(=O)NC(CC)CC)n3)c(OC)c2)C1 (stereo not shown) [Example 23-4],1.2,600,1070,900,,
CNS(=O)(=O)c1ccccc1Nc1nc(Nc2ccc(N3CCC(C(N)=O)CC3)cc2OC)ncc1Br [Example 3-43],5.6,270,110,200,,
CNS(=O)(=O)c1ccccc1Nc1nc(Nc2ccc(N3CCS(=O)(=O)CC3)cc2OC)ncc1Br [Example 3-44],11,90,90,50,,
CNS(=O)(=O)c1ccccc1Nc1nc(Nc2cc(-c3ccncc3)ccc2OC)ncc1Br [Example 3-65],8,150,100,80,,

# — patent US7893074B2, “2, 4-pyrimidinediamines useful in the treatment of neoplastic diseases, inflammatory and immune system disorders” (Novartis AG, priority 2003, dated 2011)
